{"source": "patent US5187155A", "about": "“Anticoagulant peptides” (Board of Regents, The University of Texas System, priority 1989, dated 1993)", "key": {"[1]": {"target": "T1, Factor Xa:Factor Va complex (Homo sapiens, UniProt P12259)", "T1 sequence (P12259 29-737 limits assumed)": "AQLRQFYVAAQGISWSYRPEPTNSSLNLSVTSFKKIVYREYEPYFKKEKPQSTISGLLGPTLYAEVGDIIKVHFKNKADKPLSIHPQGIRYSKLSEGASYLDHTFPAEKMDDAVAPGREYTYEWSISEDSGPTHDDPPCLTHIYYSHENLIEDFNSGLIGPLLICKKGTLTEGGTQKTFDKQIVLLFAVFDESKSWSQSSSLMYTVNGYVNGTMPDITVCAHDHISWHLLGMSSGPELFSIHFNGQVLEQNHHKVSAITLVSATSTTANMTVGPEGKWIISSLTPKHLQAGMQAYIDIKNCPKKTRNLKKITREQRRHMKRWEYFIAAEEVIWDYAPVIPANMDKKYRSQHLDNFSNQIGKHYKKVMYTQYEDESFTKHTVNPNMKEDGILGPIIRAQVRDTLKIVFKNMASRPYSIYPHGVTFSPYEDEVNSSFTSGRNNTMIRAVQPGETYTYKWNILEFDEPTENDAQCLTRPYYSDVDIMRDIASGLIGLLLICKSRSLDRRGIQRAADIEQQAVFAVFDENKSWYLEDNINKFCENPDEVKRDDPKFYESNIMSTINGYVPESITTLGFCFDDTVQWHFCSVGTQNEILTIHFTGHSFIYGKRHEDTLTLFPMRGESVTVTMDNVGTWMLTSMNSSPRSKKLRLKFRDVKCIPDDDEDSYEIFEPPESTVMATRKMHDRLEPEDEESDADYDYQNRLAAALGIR", "T1 sequence (P12259 1574-2224 limits assumed)": "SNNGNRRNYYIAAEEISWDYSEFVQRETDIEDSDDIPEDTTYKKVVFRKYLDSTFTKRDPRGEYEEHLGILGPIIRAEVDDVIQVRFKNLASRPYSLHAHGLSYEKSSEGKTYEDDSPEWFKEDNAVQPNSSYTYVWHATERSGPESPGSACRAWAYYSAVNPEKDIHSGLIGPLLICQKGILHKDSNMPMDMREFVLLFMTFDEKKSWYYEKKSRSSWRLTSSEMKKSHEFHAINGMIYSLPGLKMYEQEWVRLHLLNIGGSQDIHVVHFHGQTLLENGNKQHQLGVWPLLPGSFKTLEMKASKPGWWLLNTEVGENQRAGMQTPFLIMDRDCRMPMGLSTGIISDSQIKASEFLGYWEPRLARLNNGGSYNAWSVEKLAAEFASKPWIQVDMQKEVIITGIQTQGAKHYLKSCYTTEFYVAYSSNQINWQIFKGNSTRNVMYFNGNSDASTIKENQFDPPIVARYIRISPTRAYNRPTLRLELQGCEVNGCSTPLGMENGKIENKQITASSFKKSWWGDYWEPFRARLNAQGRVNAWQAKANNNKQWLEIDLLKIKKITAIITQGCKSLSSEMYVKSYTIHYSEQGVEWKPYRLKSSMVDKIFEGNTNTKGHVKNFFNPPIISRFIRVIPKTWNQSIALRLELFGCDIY", "test": "Rate of thrombin formation (prothrombin activation by Factor Xa), chromogenic assay", "assay_type": "biochemical", "conditions": "for Thrombin Formation (% of Control Rate): 200 μM final concentration of peptide", "method": "b. Rate of Thrombin Formation: The ability of the synthetic peptides to inhibit Factor Xa function was assessed by their capacity to impede the rate of thrombin formation using a purified system and employing a specific thrombin chromogenic substrate. To 10 ul of Factor V (1.5 nM) was added 10 ul of phospholipid vesicles (30 uM), 3.3 ul of CaCl2 (100 mM) and 57 ul of TBS-BSA or synthetic peptide. The mixture was incubated at 37 degrees Centigrade for 15 minutes, after which 20 ul of Factor Xa (12 pM) and prothrombin (0.35 uM) were added to initiate the reaction.\nAt defined time intervals from initiation of either reaction (a) or (b), 20 ul aliquots were removed and added to a microtiter plate containing 80 ul of 50 mM Tris-HCl, 225 mM NaCl, 10 mM EDTA, pH 8.2. […] The rate of Factor Xa or thrombin formation was calculated from the slope of linear regressions of data plotted as a function of the initial rate of hydrolysis (OD 405/min) versus time and expressed as OD 405/min/min.\nFactor Xa associates with activated Factor Va on a phospholipid surface in the presence of calcium. A chromogenic assay was used to investigate the ability of the panel of synthetic peptides to inhibit the activation of prothrombin by Factor Xa. In preliminary experiments it was determined that similar results were obtained whether prothrombin was added before or after factor Xa and that the 15 minute incubation period was sufficient for the peptide-protein interactions to reach equilibrium. […] Seven peptides prevented thrombin formation by greater than 40% when compared to reactions containing buffer only. These peptides represented the amino acid sequences 211-222, 237-262, 254-269, 267-283, 284-303, 363-375, 417-431. Thus, a limited number of synthetic peptides representing the primary structure of Factor Xa could inhibit this reaction and these were analyzed further."}, "[2]": {"target": "extrinsic activation complex (factor VIIa:tissue factor) (Homo sapiens, UniProt P08709+P13726)", "sequence (P08709 61-212 limits assumed)": "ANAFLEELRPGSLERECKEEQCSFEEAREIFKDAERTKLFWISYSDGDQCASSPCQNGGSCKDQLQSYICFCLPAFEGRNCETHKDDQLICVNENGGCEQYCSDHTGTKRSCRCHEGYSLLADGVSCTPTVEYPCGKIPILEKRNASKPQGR", "sequence (P08709 213-466 limits assumed)": "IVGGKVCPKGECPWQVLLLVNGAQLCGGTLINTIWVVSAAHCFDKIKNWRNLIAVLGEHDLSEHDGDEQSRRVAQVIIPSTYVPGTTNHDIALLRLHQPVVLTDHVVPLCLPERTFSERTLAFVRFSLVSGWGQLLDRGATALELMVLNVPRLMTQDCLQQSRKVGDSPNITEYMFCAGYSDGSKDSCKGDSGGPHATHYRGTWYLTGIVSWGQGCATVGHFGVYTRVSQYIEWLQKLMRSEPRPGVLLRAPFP", "sequence (P13726 33-295)": "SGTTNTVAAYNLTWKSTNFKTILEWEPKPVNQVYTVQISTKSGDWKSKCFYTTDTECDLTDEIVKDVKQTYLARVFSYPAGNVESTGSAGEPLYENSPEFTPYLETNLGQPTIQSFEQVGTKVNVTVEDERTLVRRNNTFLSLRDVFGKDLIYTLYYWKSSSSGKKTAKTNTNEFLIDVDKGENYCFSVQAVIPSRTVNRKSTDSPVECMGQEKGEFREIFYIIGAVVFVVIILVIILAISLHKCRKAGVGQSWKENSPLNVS", "test": "Rate of Factor Xa formation by the extrinsic activation complex, kinetic chromogenic assay", "assay_type": "biochemical", "conditions": "for Factor Xa Formation (% of Control Rate) Extrinsic: 1 mg/ml (0.29-1.1 mM) peptide, 30 min at 37 degrees preincubation"}, "[3]": {"target": "T2, intrinsic activation complex (factor IXa:factor VIIIa) (Homo sapiens, UniProt P00451+P00740)", "T2 construct": "Factor IXa was produced from contact product (14) and isolated as previously described (12); made in house; host or cells: Factor IXa produced from isolated Factor IX with contact product; Factor VIII was a gift from Rorer Biotechnology, Inc", "T2 sequence (P00740 47-191 limits assumed)": "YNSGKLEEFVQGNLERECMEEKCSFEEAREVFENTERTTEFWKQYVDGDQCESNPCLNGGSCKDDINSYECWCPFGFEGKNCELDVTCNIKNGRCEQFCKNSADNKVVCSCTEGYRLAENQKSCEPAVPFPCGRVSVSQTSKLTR", "T2 sequence (P00740 227-461 limits assumed)": "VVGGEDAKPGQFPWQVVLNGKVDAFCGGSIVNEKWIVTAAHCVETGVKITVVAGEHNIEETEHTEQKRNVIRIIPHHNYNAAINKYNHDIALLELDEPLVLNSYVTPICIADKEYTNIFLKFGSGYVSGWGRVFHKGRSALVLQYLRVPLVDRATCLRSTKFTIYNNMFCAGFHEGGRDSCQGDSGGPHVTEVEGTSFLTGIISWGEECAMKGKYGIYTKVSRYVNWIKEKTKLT", "T2 sequence (P00451 20-391 limits assumed)": "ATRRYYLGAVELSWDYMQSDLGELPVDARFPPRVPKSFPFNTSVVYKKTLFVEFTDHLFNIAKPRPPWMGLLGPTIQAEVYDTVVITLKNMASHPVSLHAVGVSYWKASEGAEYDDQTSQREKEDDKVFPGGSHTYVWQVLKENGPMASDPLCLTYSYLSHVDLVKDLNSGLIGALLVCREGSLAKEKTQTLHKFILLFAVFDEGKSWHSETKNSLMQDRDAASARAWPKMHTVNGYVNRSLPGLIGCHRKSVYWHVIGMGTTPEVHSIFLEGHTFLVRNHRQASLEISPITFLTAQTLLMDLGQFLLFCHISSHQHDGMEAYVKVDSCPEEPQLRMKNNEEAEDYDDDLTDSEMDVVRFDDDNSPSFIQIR", "T2 sequence (P00451 392-759 limits assumed)": "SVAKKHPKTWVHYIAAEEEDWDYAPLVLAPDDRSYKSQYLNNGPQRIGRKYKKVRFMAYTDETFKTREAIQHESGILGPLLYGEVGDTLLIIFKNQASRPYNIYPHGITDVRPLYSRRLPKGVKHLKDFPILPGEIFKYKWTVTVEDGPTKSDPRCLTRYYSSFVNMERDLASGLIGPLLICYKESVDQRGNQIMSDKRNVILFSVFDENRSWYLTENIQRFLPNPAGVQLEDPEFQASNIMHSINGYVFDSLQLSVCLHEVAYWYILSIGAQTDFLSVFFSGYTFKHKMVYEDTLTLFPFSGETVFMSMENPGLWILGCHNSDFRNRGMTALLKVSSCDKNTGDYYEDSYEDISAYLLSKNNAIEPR", "T2 sequence (P00451 1709-2351 limits assumed)": "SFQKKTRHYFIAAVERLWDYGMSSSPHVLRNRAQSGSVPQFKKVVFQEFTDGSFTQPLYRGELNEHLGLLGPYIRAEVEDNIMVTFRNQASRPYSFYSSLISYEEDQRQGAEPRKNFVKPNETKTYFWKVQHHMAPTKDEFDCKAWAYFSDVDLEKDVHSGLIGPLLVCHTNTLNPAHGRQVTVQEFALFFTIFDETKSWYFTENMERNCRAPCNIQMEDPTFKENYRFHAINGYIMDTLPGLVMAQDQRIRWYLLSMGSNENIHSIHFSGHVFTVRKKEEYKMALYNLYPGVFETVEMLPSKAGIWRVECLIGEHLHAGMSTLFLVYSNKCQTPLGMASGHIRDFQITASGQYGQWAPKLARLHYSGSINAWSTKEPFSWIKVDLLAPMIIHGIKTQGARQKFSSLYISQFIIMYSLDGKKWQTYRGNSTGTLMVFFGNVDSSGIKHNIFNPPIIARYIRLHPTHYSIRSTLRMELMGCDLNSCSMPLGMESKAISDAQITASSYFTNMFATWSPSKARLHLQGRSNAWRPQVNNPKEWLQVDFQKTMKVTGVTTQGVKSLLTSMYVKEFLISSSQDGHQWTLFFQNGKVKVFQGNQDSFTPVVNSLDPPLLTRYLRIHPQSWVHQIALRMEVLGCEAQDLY", "test": "Rate of Factor Xa formation by the intrinsic activation complex, kinetic chromogenic assay", "assay_type": "biochemical", "conditions": "for Factor Xa Formation (% of Control Rate) Intrinsic: 1 mg/ml (0.29-1.1 mM) peptide, 30 min at 37 degrees preincubation"}, "RVV-X": {"target": "RVV-X (Daboia siamensis, UniProt Q4PRD1+Q4PRD2+Q7LZ61)", "test": "biochemical", "set-up": "species or system Russell's viper"}, "[4]": {"system": "Factor X coagulant activity, RVV-X pathway", "test": "Two-stage clotting assay, RVV-X mediated activation of Factor X", "set-up": "species or system human"}, "[5]": {"system": "Factor X coagulant activity, extrinsic pathway", "test": "Two-stage clotting assay, extrinsic activation of Factor X", "procedure": "(§1) Coagulation Assays: The effect of the synthetic peptide and antibodies to them on Factor X coagulation activity was determined using two-stage clotting assays specific for Factor X activation by the intrinsic, extrinsic, and RVV-X activation enzyme complexes.\n(§2) For determination of extrinsic activation of Factor X, 50 ul of bovine Factor VII/X deficient plasma was added 50 ul each of 1.5 nM Factor VII/VIIa, 1% tissue factor, 25 mM CaCl2, and peptide in TBS-BSA. Following incubation for 30 min at 37 degrees Centigrade, coagulation was initiated by the addition of 50 ul of 200 nM of Factor X, and the time for clot formation was measured. […] Factor X (50 ul of 105 nM) was added to initiate the reaction and the time for clot formation measured. […] Factor X and Xa activity was measured by the addition of 50 ul of 25 nM Factor X and the time for clot formation determined. […]\n(§3) Analogous determinations of the CI50 values were measured in each of the specific coagulation assays outlined above. Factor X/Xa activity in the presence of varying concentrations of peptide was measured by comparing the clotting times to a standard curve constructed from the log of the clot time versus the log of Factor X concentration in the same incubation mixtures lacking peptides. […]"}, "[6]": {"system": "Factor X coagulant activity, intrinsic pathway", "test": "Two-stage clotting assay, intrinsic activation of Factor X", "procedure": "as §1, §2, §3"}, "[7]": {"conditions": "267-283 at 6 uM, 284-303 at 60 uM, 417-431 at 600 uM, alone or mixed"}}, "note": "Where “and” joins values, the source holds several entries; their conditions need not be identical. Identical values can stand only once. Where a SMILES comes first, the peptide text is derived from it. Where no end group is shown, it is not given here."}
{"compound": "C[C@H](NC(=O)[C@H](CC(=O)O)NC(=O)[C@H](CCC(=O)O)NC(=O)[C@H](CCC(N)=O)NC(=O)[C@H](CCCCN)NC(=O)[C@@H](NC(=O)[C@H](CC(=O)O)NC(=O)[C@H](Cc1ccc(O)cc1)NC(=O)CNC(=O)[C@H](C)NC(=O)[C@H](CS)NC(=O)[C@@H](N)Cc1ccccc1)[C@@H](C)O)C(=O)N[C@@H](CS)C(=O)O", "note": "[Peptide 363-375] (H-FCAGYDTKQEDAC-OH; N-terminus and C-terminus assumed)", "values": [{"measurement": "mode of inhibition of prothrombin activation", "setting": "[1]; Dixon plots, varying prothrombin", "value": "noncompetitive"}]}
{"compound": "AVLRLKTPITFRMNVAPACL [Peptide 284-303]", "values": [{"measurement": "Factor Xa Formation (% of Control Rate) Extrinsic", "setting": "[2]", "value": "19 % of Control Rate"}, {"measurement": "Factor X Activation (% Control) Experiment #1 Observed", "setting": "[2]; [7]", "value": 35.0, "unit": "% Control"}, {"measurement": "Factor X Activation (% Control) Experiment #2 Observed", "setting": "[2]; [7]", "value": 47.8, "unit": "% Control"}, {"measurement": "Ki", "setting": "[2]; Dixon plots, mean ± SD for 4 to 5 determinations, read-out: Ki for Factor X Activation, Extrinsic", "value": "73.6 ± 7.79", "unit": "µM"}, {"measurement": "IC50", "setting": "[2]; chromogenic assay, read-out: Concentration for 50% Inhibition, Rate of Factor Xa Formation, Extrinsic", "value": 78, "unit": "µM"}, {"measurement": "Factor Xa Formation (% of Control Rate) Intrinsic", "setting": "[3]", "value": "0 % of Control Rate"}, {"measurement": "Ki", "setting": "[3]; Dixon plots, mean ± SD for 4 to 5 determinations, read-out: Ki for Factor X Activation, Intrinsic", "value": "3.05 ± 1.77", "unit": "µM"}, {"measurement": "IC50", "setting": "[3]; chromogenic assay, read-out: Concentration for 50% Inhibition, Rate of Factor Xa Formation, Intrinsic", "value": "1700 nM and < 5000 nM"}, {"measurement": "Factor Xa Formation (% of Control Rate) RVVX", "setting": "RVV-X", "value": 34}, {"measurement": "IC50", "setting": "RVV-X; read-out: Concentration for 50% Inhibition, Rate of Factor Xa Formation, RVV.X", "value": 104, "unit": "µM"}, {"measurement": "Ki", "setting": "RVV-X; read-out: Ki for Factor X Activation, RVV-X", "value": "123 ± 23.9", "unit": "µM"}, {"measurement": "Thrombin Formation (% of Control Rate)", "setting": "[1]", "value": "0 % of Control Rate"}, {"measurement": "prevention of thrombin formation compared to buffer only", "setting": "[1]; 200 uM of each peptide", "value": "greater than 40%"}, {"measurement": "Ki", "setting": "[1]; assays varying the substrate prothrombin, read-out: Ki for Factor Xa Function", "value": "16.2 ± 4.54", "unit": "µM"}, {"measurement": "inhibition of RVV-X pathway Factor X coagulant activity", "setting": "[4]; clot formation assay", "value": "inhibited"}, {"measurement": "IC50", "setting": "[4]; clotting assay, read-out: Concentration for 50% Inhibition, Coagulant Activity, RVV.X", "value": 14, "unit": "µM"}, {"measurement": "inhibition of extrinsic pathway-mediated Factor X coagulant activity", "setting": "[5]; clot formation assay", "value": "less potent inhibitor"}, {"measurement": "IC50", "setting": "[5]; read-out: Concentration for 50% Inhibition, Coagulant Activity, Extrinsic, clotting assay", "value": "> 500", "unit": "µM"}, {"measurement": "inhibition of intrinsic pathway Factor X coagulant activity", "setting": "[6]; clot formation assay", "value": "inhibited"}, {"measurement": "IC50", "setting": "[6]; read-out: Concentration for 50% Inhibition, Coagulant Activity, Intrinsic, clotting assay", "value": 46, "unit": "µM"}]}
{"compound": "CARGYTLADNGKAC [Peptide 111-124]", "values": [{"measurement": "Factor Xa Formation (% of Control Rate) Extrinsic", "setting": "[2]", "value": "83 % of Control Rate"}, {"measurement": "Factor Xa Formation (% of Control Rate) Intrinsic", "setting": "[3]", "value": "121 % of Control Rate"}, {"measurement": "Factor Xa Formation (% of Control Rate) RVVX", "setting": "RVV-X", "value": 77}, {"measurement": "Thrombin Formation (% of Control Rate)", "setting": "[1]", "value": "100 % of Control Rate"}]}
{"compound": "IVGGQECKDGECPWQA(K) (C-terminal added Lys) [Peptide 195-210 + K]", "values": [{"measurement": "Factor Xa Formation (% of Control Rate) Extrinsic", "setting": "[2]", "value": "88 % of Control Rate"}, {"measurement": "Factor Xa Formation (% of Control Rate) Intrinsic", "setting": "[3]", "value": "98 % of Control Rate"}, {"measurement": "Factor Xa Formation (% of Control Rate) RVVX", "setting": "RVV-X", "value": 76}, {"measurement": "Thrombin Formation (% of Control Rate)", "setting": "[1]", "value": "99 % of Control Rate"}]}
{"compound": "LYQAKRF *EGDRNTEQEEGG(K) [Peptide 238-259 + K]", "values": [{"measurement": "Factor Xa Formation (% of Control Rate) Extrinsic", "setting": "[2]", "value": "100 % of Control Rate"}, {"measurement": "Factor Xa Formation (% of Control Rate) Intrinsic", "setting": "[3]", "value": "71 % of Control Rate"}, {"measurement": "Factor Xa Formation (% of Control Rate) RVVX", "setting": "RVV-X", "value": 100}, {"measurement": "Thrombin Formation (% of Control Rate)", "setting": "[1]", "value": "98 % of Control Rate"}]}
{"compound": "TEQE*GGEAVHEVEVVIK [Peptide 253-270]", "values": [{"measurement": "inhibition of the rate and extent of Factor X activation by the extrinsic activation complex", "setting": "[2]; 400 uM peptide, Factor X 5.25-84 nM (FIG. 1)", "value": "approximately 20%"}, {"measurement": "Factor Xa Formation (% of Control Rate) Extrinsic", "setting": "[2]", "value": "100 % of Control Rate"}, {"measurement": "Factor Xa Formation (% of Control Rate) RVVX", "setting": "RVV-X", "value": 71}]}
{"compound": "VVIKHNRFTKETYDFDI [Peptide 267-283]", "values": [{"measurement": "inhibition at 400 µM", "setting": "[2]; 400 uM peptide, Factor X 5.25-84 nM (FIG. 1), read-out: inhibition of the rate and extent of Factor X activation by the extrinsic activation complex", "value": "≥ 90", "unit": "%"}]}
